Laboratory results from patent US4963570A, “1-(acetylaminophenyl)-2-aminopropanone derivatives and pharmaceutical compositions thereof” (Laboratoire L. Lafon, priority 1983, dated 1990).
“Also recorded” adds a separate entry of the source. Counter-ions that a name gives are not always drawn.

Key:
male mice [1] = experiment: acute toxicity, intraperitoneal (lethal doses); type: in vivo, mouse; conditions: i.p.
Method: By intraperitoneal administration to male mice, the LD-30 (lethal dose for 30% of the animals tested) is of the order of 128 mg/kg and the LD-50 is of the order of about 200 mg/kg.

mice [2] = experiment: overall behavior and reactivities in mice; type: in vivo, mouse; conditions: mice, i.p.; dose not stated
Method: (§1) Groups of three animals are observed before and then 0.25 hour, 0.50 hour, 1 hour, 2 hours, 3 hours and 24 hours after the administration of CRL 41 224.

mice [3] = experiment: interaction with apomorphine in mice; type: in vivo, mouse; conditions: i.p.; dose not stated
Method: Groups of 6 mice receive CRL 41 224 0.5 hour before the subcutaneous injection of 1 or 16 mg/kg of apomorphine.

rats [4] = experiment: interaction with apomorphine in rats; type: in vivo, rat; conditions: i.p., dose not stated
Method: CRL 41 224 is administered to groups of 6 rats 0.5 hour before the subcutaneous injection of 0.5 mg/kg of apomorphine.

rats [5] = experiment: interaction with amphetamine; type: in vivo, rat; conditions: rats, i.p.; dose not stated
Method: Amphetamine (2 mg/kg) is injected intraperitoneally into groups of 6 rats 30 minutes after the administration of CRL 41 224.

mice [6] = experiment: interaction with reserpine; type: in vivo, mouse; conditions: i.p.; dose not stated
Method: Four hours after the intraperitoneal injection of 2.5 mg/kg of reserpine, groups of 6 mice receive CRL 41 224.

mice [7] = experiment: interaction with oxotremorine; type: in vivo, mouse; conditions: i.p.; dose not stated
Method: CRL 41 224 is administered to groups of 6 mice 0.5 hour before the intraperitoneal injection of 0.5 mg/kg of oxotremorine.

mice [8] = experiment: four plate test, traction and electric shock; type: in vivo, mouse; conditions: i.p., dose not stated
Method: The test is performed on groups of 10 mice 30 minutes after the administration of CRL 41 224.

mice [9] = experiment: action on the spontaneous motility (actimeter); type: in vivo, mouse; conditions: mice, i.p.; dose not stated
Method: 0.5 hour after they have received CRL 41 224, the mice (6 per dose, 12 control animals) are placed in an actimeter, where their motility is recorded for 30 minutes.

mice [10] = experiment: motility reduced by habituation to the enclosure; type: in vivo, mouse; conditions: i.p., dose not stated
Method: After they have stayed in the actimeters for 18 hours, the mice (6 per dose, 12 control animals) receive CRL 41 224. They are immediately returned to their respective enclosures and, half an hour later, their motility is recorded for 30 minutes.

mice [11] = experiment: motility reduced by hypoxic aggression; type: in vivo, mouse; conditions: i.p., dose not stated
Method: Half an hour after they have received CRL 41 224, the mice (10 per dose, 20 control animals) are subjected to acute hypobaric anoxia [pressure reduction of 600 mm Hg (i.e. about 8×10^4 Pa) in 90 seconds; release of vacuum in 45 seconds] and are then placed in an actimeter, where their motility is recorded for 10 minutes.

mice [12] = experiment: interaction with barbital; type: in vivo, mouse; conditions: i.p.; dose not stated
Method: Half an hour after the administration of CRL 41 224, groups of 10 mice receive an intraperitoneal injection of barbital (220 mg/kg).

mice [13] = experiment: action on the behavioral despair; type: in vivo, mouse; conditions: i.p., dose not stated
Text: Half an hour after they have received CRL 41 224, groups of 6 mice are placed in a beaker filled with water to a height of 6 cm. The total period of immobility between the 2nd and 6th minutes following immersion is noted.

CNS = experiment: overall neuropsychopharmacological (CNS) profile; type: in vivo, mouse; rat; conditions: i.p., mice and rats, dose not stated
Method: The neuropsychopharmacological study of CRL 41 219 was carried out as indicated above for CRL 41 224.
The neuropsychopharmacological study of CRL 41 220 was carried out in accordance with the procedures given above for CRL 41 224.

[14] = test system: peripheral α-adrenergic stimulation; experiment: signs of peripheral adrenergic stimulation; type: in vivo, mouse; rat; conditions: i.p.; dose not stated
Method: as §1

dogs = experiment: cardiovascular action in anesthetized dogs; type: in vivo, dog; conditions: control dogs
Method: Four dogs (average weight: 13.8 kg), anesthetized with nembutal, receive CRL 41 220 by intraduodenal administration at successive doses of 0.1 mg/kg, 0.5 mg/kg, 1 mg/kg, 2.5 mg/kg, 5 mg/kg and 10 mg/kg. The blood pressure, the heart beat, the flow rate through the femoral artery, the flow rate through the vertebral artery and the rectal and/or skin temperature are measured and the coloration of the skin and the bile (collected by catheterization of the bile duct after ligature of the cystic duct) is observed.

male mice [15] = experiment: influence of catecholamines on hyperactivity in mice; type: in vivo, mouse; conditions: I.V.C., 10 μg
Method: A further series of assays was carried out on mice according to the teaching of S. L. HANDLEY et al. "Influences of catecholamines on dexamphetamine, induced changes in locomotor activity", Psychopharmacology 58, 283-288 (1978), in order to observe a potential influence of dopamine or moradrenaline on the hyperactivity induced by CRL 41 152.
After a habituation period of 1.5 h to the actimeters, male mice (grouped into batches of 10 animals each and a control batch of 20 animals) were administered (under slight anesthesia with ether) per intraventriculocerebral injection (i.e. I.V.C. route) with (i) either 10 μg of noradrenaline, or 10 μg of dopamine or 10 μl (0.5 μl/second) of saline solution, then (ii) 5 minutes later, with CRL 41 152 (in solution in distilled water) per I.P. route in a volume of 20 ml/kg, immediately before replacing the mice in the actimeters vherein their motility was recorded for 1 hour by measuring the number of crossed rays per period of 5 minutes).
Batches receiving CRL 41 152 per I.P. route with noradreanaline or dopamine per I.V.C. route were compared with (i) the control batch receiving the saline solution per I.V.C. route then distilled water per I.P. route, and (ii) batches receiving only noradrenaline, dopamine (per I.V.C. route) or CRL 41 152 (per I.P. route).

LEWIS' carcinoma = LEWIS' carcinoma in mice; type: in vivo, mouse; conditions: mice
Method: a. animals: consanguineous female mice (C57 BL6), b. infecting cells: 10^5 cells injected subcutaneously into the back of the animals, c. monitoring of the tumor growth by measurement of the tumor twice a week, d. evaluation of the pulmonary metastases after fixation of the lungs of the dead animals in BOUIN's fixative.
Using the same procedures, the association of CRL 41 220 with 150 mg/kg of cyclophosphamide gives the results collated in Table II below.

rats [16] = experiment: overall behavior and reactivities in rats; type: in vivo, rat; conditions: i.p., dose not stated
Method: as §1

rats [17] = experiment: action on stereotypies in rats (α-methyltyrosine, haloperidol, reserpine); conditions: i.p.

Row | SMILES | excitation in mice (mice [2]) | hypothermia induced by apomorphine (mice [3]) | stereotypies induced by apomorphine (rats [4]) | stereotypies induced by amphetamine (rats [5]) | hypothermia induced by reserpine (mice [6]) | ptosis induced by reserpine (mice [6]) | hypothermia induced by oxotremorine (mice [7]) | spontaneous motility / motor activity (mice [9]) | motor activity after habituation to the enclosure (mice [10]) | motor recovery after hypoxic aggression (mice [11]) | period of immobility or "despair" (mice [13]) | mydriasis [14] | peripheral adrenergic stimulation, overall [14] | also measured
1 | CC(=O)Nc1ccc(C(=O)C(C)N2CCOCC2)cc1 (stereo not drawn) [CRL 41 236] | excitation with hyperreactivity | antagonism of the hypothermia induced by apomorphine | potentiation of the stereotypies induced by apomorphine | potentiation of the stereotypies induced by apomorphine and amphetamine | antagonism of the hypothermia induced by apomorphine, reserpine | antagonism of the ptosis induced by reserpine | antagonism of the hypothermia induced by apomorphine, reserpine and oxotremorine | increase in the spontaneous motility | increase in the spontaneous motility and in the motor activity after habituation to the enclosure | improvement in the motor recovery after hypoxic aggression | reduction in the immobility | mydriasis | peripheral α-adrenergic stimulation | LD-0 (maximum non-lethal dose) (male mice [1]): greater than 256 mg/kg; LD-30 (male mice [1]): about 500 mg/kg; stereotype movements in mice (mice [2]): without the presence of stereotype movements; lethal effects of electric shock (mice [8]): seems to aggravate the lethal effects of electric shock; number of punished passes in the 4 plate test (mice [8]; mice): moderate increase in the number of punished passes; sleep induced by barbital (mice [12]): antagonism of the sleep induced by barbital; overall action on the CNS (CNS): behaves as an antidepressant having stimulant and arousing properties
2 | NC[C@H](O)c1ccc(O)c(O)c1 [noradrenaline, reference compound] | – | – | – | – | – | – | – | – | – | – | – | – | – | systolic blood pressure with 2 μg/kg of noradrenaline, control animals (dogs; noradrenaline alone): 323 mm Hg; locomotor effect by comparison with saline (male mice [15]): did not cause any visible locomotor effect
3 | O=P1(N(CCCl)CCCl)NCCCO1 (stereo not drawn) [cyclophosphamide, reference compound] | – | – | – | – | – | – | – | – | – | – | – | – | – | development of tumors (LEWIS' carcinoma; 100 mg/kg): slightly slows down the development of tumors; number of pulmonary metastases (LEWIS' carcinoma; 100 mg/kg): reduces the number of pulmonary metastases; survival of the animals treated (LEWIS' carcinoma; 100 mg/kg): without however improving the survival of the animals treated; effect on process initiated by the administration of infecting cells (LEWIS' carcinoma; 150 mg/kg): distinctly opposes the process initiated by the administration of infecting cells; survival (LEWIS' carcinoma; 150 mg/kg): 2 out of 6
4 | NCCc1ccc(O)c(O)c1 [dopamine, reference compound] | – | – | – | – | – | – | – | – | – | – | – | – | – | locomotor effect by comparison with saline (male mice [15]): did not cause any visible locomotor effect
5 | CC(C)NCC(O)c1ccc(O)c(O)c1 (stereo not drawn) [isoprenaline, reference compound] | – | – | – | – | – | – | – | – | – | – | – | – | – | heart beat with 10 μg/kg of isoprenaline, control animals (dogs; isoprenaline alone): 280 beats/minute
6 | CC(=O)Nc1ccc(C(=O)C(C)NC(C)C)cc1Cl (stereo not drawn) [CRL 41 192, 1-(4-acetylamino-3-chlorophenyl)-2-isopropylaminopropanone hydrochloride] | excitation with hyperreactivity in mice | antagonism of the hypothermia induced by apomorphine | potentiation of the stereotypies induced by apomorphine | potentiation of the stereotypies induced by apomorphine or amphetamine | antagonism of the hypothermia induced by apomorphine, oxotremorine or reserpine | antagonism of the ptosis induced by reserpine | antagonism of the hypothermia induced by apomorphine, oxotremorine | an increase in the spontaneous motility in mice | a resumption in the motor activity of mice accustomed to their enclosure | an improvement in the motor recovery in mice after acute hypoxia | a reduction in the immobility | mydriasis | effects which may reflect peripheral adrenergic stimulation | stereotype movements in rats (rats [16]): stereotype movements in rats; trembling caused by oxotremorine (mice [7]): antagonism of the trembling caused by oxotremorine; convulsant effects of electric shock (mice [8]): anticonvulsant effects; sleep induced by barbital (mice [12]): antagonism of the sleep induced by barbital; overall action on the CNS (CNS; hydrochloride): stimulant effects; also recorded: antidepressant effects; exophthalmos [14]: absent; salivation [14]: absent; suppression of induced stereotype movements by prior injection of alpha-methyltyrosine (rats [17]): not suppressed
7 | CC(=O)Nc1ccc(C(=O)C(C)N(C)C)cc1 (stereo not drawn) [CRL 41 232] | excitation in mice | antagonism of the hypothermia induced by apomorphine | potentiation of the stereotypies induced by apomorphine | potentiation of the stereotypies induced by apomorphine and amphetamine | antagonism of the hypothermia induced by apomorphine, reserpine | antagonism of the ptosis induced by reserpine | antagonism of the hypothermia induced by apomorphine, reserpine and oxotremorine | increase in the motor activity | distinct resumption in the motor activity of mice accustomed to their enclosure | improvement in the motor recovery | reduction in the period of immobility | mydriasis | peripheral α-adrenergic stimulation | LD-0 (maximum non-lethal dose) (male mice [1]): greater than 128 mg/kg; LD-30 (male mice [1]): about 250 mg/kg; stereotype movements in mice (mice [2]): presence of stereotype movements in mice; stereotype movements in rats (rats [16]): presence of stereotype movements in mice and rats; overall action on the CNS (CNS): behaves overall as a stimulant and antidepressant for the CNS; exophthalmos [14]: exophthalmos
